Data on nine compounds can be found in patent US20250339399A1, “SUPRAMOLECULAR SELF-ASSEMBLY SYSTEM” (Beijing Creatron Institute of Pharmaceutical Research Co., …, priority 2022, published 2025).

Data set [1] can be described thus: Guest molecule concentration after incubation in initial medium without polymer (Comparative Example 1). In kind it is physicochemical. The settings on record: for Concentration of guest molecule measured after different incubated time: 37° C.; for Concentration of guest molecule in solution: initial medium. The procedure: (§1) pH 2.0 hydrochloric acid, pH 4.5 acetate, and pH 6.5, pH 6.8, or pH 7.4 phosphate buffer solutions were prepared. The selection of each initial medium followed the principle that the solubility in the initial medium of the selected targets (or active ingredients) should low enough, but should meet the detection sensitivity and accuracy requirements of the corresponding analytical methods. Each buffer as initial media was placed in a 50 ml test tube with a stopper, shaken in a constant temperature air shaker at 37° C.±0.5° C., with an amplitude of 200 rpm, and incubated for 1 hour. […] Samples were taken at 0.5 h, 3 h and 6 h after incubation, centrifuged at 37° C., 13000 rpm for 5 minutes, and the supernatant was diluted at least 10 times with the mobile phase under the target analyte analytical method, filtered, the initial filtrate was discarded, and the continued filtrate was used as the test solution for injection analysis. The corresponding HPLC method under each target object item in Table 8 was used to determine the content of each target substance. When the solubility of the target in the initial medium is below the quantitative limit of the analytical method, a small amount of surfactant, such as sodium dodecyl sulfate (SDS), Tween20, or Tween80, can be added appropriately.
The above targets were incubated at 37° C.±0.5° C. for different time in an initial medium without any polymer. Each solid target formed by molecular stacking was removed by centrifugation, and the supernatant was analyzed using the HPLC method under each target item (see Table 8). The theoretical addition concentration of each target when its supramolecular self-assembly system was built was determined by its maximum dose in clinical use.

Data set [2] is described as follows: Binary supramolecular self-assembly systems of polymer and target: guest concentration over incubation time (Comparative Example 2). The format is physicochemical. The settings on record: for Concentration of guest molecule in solution / Times that of the initial medium: 6 h. The procedure:
Experiments were conducted according to the steps in Comparative Example 1, and quantitative analysis was carried out using the analytical method for each target to investigate the regulation ability […] stacking.

The conditions of data set [3]: Cannabidiol derivatives, Table 30 (chemical structures); cited from earlier work.
Data set [4] can be described thus: Binary (carrier), ternary and quaternary supramolecular self-assembly systems of polymer, carrier building block and target: guest concentration over incubation time (Examples 1-56). The format is physicochemical. The settings on record: for Concentration of guest molecule in solution / Times that of the initial medium: 6 h. The procedure: as §1
Experiments were conducted according to the steps in Comparative Example 1, and quantitative analysis was carried out using the analytical method for each target to investigate the regulation ability of each binary supramolecular self-assembly system built from 0.5% polymer and target on guest molecules stacking.
Ternary supramolecular self-assembly systems based on different polymers, carrier building blocks, and targets were built according to the experimental scheme in Table 12, to investigate the influence of synergistic regulation of the carrier building blocks and the polymers on the stacking of target molecules, as well as the stability of the supramolecular self-assembly systems jointly built by them over incubation time. The initial medium, quantitative analysis method, pre-treatment method, and initial theoretical concentration of the target, corresponding to each target molecule in the experiment, were consistent with those in Comparative Examples 1 and 2. After a target was added to the system, the target was uniformly dispersed by ultrasonication at 37° C. for half an hour and then shaken in a 37° C. constant temperature air shaker, and samples were collected after different incubation time, i.e. 0.5 h, 1 h, 2 h, 3 h, 4 h, and 6 h.

Where [5] appears, read: binary system with 0.5% polymer 102, incubation 0.5 h.
Setting [6] is: binary system with 0.5% polymer 102, incubation 3 h.
Where [7] appears, read: binary system with 0.5% polymer 102, incubation 6 h.
[8] abbreviates: ternary: 0.25% 102M + 0.25% 301.
The mark [9] stands for this setting: ternary: 0.25% 102M + 0.25% 302.

Structures can show the parent of a compound that is named as a salt.

As to `CC1=C[C@H](O)CC(C)(C)[C@H]1/C=C/C(C)=C/C=C/C(C)=C/C=C/C=C(C)/C=C/C=C(C)/C=C/C1=C(C)C[C@@H](O)CC1(C)C` [Lutein, lutein], the “Concentration of guest molecule measured after different incubated time” value (shortened to “Concentration … after different incubated time”) in data set [1] (0.5 h, pH 6.8 phosphate buffer) was determined as 0 ng/mL; in data set [1] (3 h, pH 6.8 phosphate buffer), 0 ng/mL; in data set [1] (6 h, pH 6.8 phosphate buffer) it was 0 ng/mL. In addition, the “Concentration of the target in the solution measured after different incubation time” value (“Concentration … after different incubation time” below) came to 16300 ng/mL in data set [2] (setting [5]), 16900 ng/mL in data set [2] (setting [6]) and 16000 ng/mL in data set [2] (setting [7]).
Regarding `C=C(C)[C@@H]1CCC(C)=C[C@H]1c1c(O)cc(O)cc1CCCCC` [compound 63, (4-[(1R,6R)-3-methyl-6-prop-1-en-2-ylcyclohex-2-en-1-yl]-5-pentylbenzene-1,3-diol)], the “Log P” value in data set [3] is “Log P = 6.33 H-D:2,H-R = 2”.
Consider `C=C(C)[C@@H]1CCC(C)=C[C@H]1c1c(O)cc(CCCC)cc1O` [compound 4, ((1′R,2′R)-4-butyl-5′-methyl-2′-(prop-1-en-2-yl)-1′,2′,3′,4′-tetrahydro-[1,1′-biphenyl]-2,6-diol)], for which the “Log P” value in data set [3] is “Log P = 5.88 H-D:2,H-R = 2”.
Take `C=C(C)[C@H]1CC[C@H](C)C[C@@H]1c1c(O)cc(-c2cc3ccccc3o2)cc1O` [compound 16]: the “Log P” value in data set [3] is listed as “Log P = 6.17 H-D:2,H-R = 2”.
Turning to `CCCCCc1cc(O)c([C@@H]2C=C(C)CC[C@H]2C(C)C)c(O)c1` [compound 20, ((1′S,2′S)-2′-isopropyl-5′-methyl-4-pentyl-1′,2′,3′,4′-tetrahydro-[1,1′-biphenyl]-2,6-diol)], the “Log P” value in data set [3] was “Log P = 6.67 H-D:2,H-R = 2”.
In the case of `O=C1[C@@H]2[C@H]3CC[C@H](C3)[C@@H]2C(=O)N1C[C@@H]1CCCC[C@H]1CN1CCN(c2nsc3ccccc23)CC1` [Lurasidone hydrochloride], the “Concentration … after different incubated time” value in data set [1] (0.5 h, pH 6.8 phosphate buffer) amounted to 7300 ng/mL; in data set [1] (3 h, pH 6.8 phosphate buffer), 10700 ng/mL; in data set [1] (6 h, pH 6.8 phosphate buffer) it was 3200 ng/mL. The “Concentration of guest molecule in solution” value (“Concentration … in solution” for short) was 32400 ng/mL in data set [2] (binary: 0.25% 101); 84400 ng/mL in data set [2] (binary: 0.25% 102H); 71500 ng/mL in data set [4] (binary: 0.25% 312); 56600 ng/mL in data set [4] (binary: 0.25% 314); 198800 ng/mL in data set [4] (binary: 0.5% 314); 2300 ng/mL in data set [4] (binary: 0.5% 319). Also, the “Concentration … in solution” value in data set [4] (ternary: 0.25% 102H + 312, carrier % not stated) is 122100 ng/mL; in data set [4] (ternary: 0.25% 319 + 0.25% 101), 11200 ng/mL; in data set [4] (ternary: 102H + 310, carrier % not stated) it was 204900 ng/mL; in data set [4] (ternary: 102H + 313, carrier % not given) it was 135700 ng/mL; in data set [4] (ternary: 102H + 318, carrier % not stated), 141800 ng/mL. The “Times that of the initial medium” value worked out at 81 times in data set [4] (binary: 0.25% 314) and 284 times in data set [4] (binary: 0.5% 314).
For the compound `CC(=O)CC(c1ccccc1)c1c(O)c2ccccc2oc1=O` (stereo not drawn) [Warfarin], the “Encapsulation rate for the guest molecule” value in data set [4] (quaternary: 0.25% 207 (101+103E5) + 0.1% 320) was around 100%.
Consider `COC(=O)[C@H](c1ccccc1Cl)N1CCc2sccc2C1` [Clopidogrel bisulfate], for which the “Concentration … after different incubated time” value in data set [1] (0.5 h, pH 4.5 acetate buffer) was found to be 48900 ng/mL; in data set [1] (3 h, pH 4.5 acetate buffer), 39600 ng/mL; in data set [1] (6 h, pH 4.5 acetate buffer) it was 52000 ng/mL. Also, the “Concentration … in solution” value in data set [1] (6 h) was 51970 ng/mL; in data set [2] (binary: 0.5% 103E3), 64370 ng/mL. Besides, in data set [4] (quaternary: 0.25% 204 (102M+103E3) + 0.25% 302, 310, 314 or 318, range over the systems), the “Times that of the initial medium” value is given as 13-17 times.
In the case of `CCCSc1nc(N[C@@H]2C[C@H]2c2ccc(F)c(F)c2)c2nnn([C@@H]3C[C@H](OCCO)[C@@H](O)[C@H]3O)c2n1` [Ticagrelor], the “Concentration … after different incubated time” value in data set [1] (0.5 h, 0.05% SDS in pH 6.8 phosphate buffer) amounted to 11700 ng/mL; in data set [1] (3 h, 0.05% SDS in pH 6.8 phosphate buffer), 11900 ng/mL; in data set [1] (6 h, 0.05% SDS in pH 6.8 phosphate buffer), 7800 ng/mL. Further, the “Concentration … in solution” value in data set [1] (6 h) is 18400 ng/mL; in data set [2] (binary: 0.25% 102H), 260200 ng/mL; in data set [4] (setting [8]), 290800 ng/mL; in data set [4] (setting [9]) it was 107200 ng/mL; in data set [4] (ternary: 0.25% 102M + 0.5% 301) it was 394000 ng/mL; in data set [4] (ternary: 102M + 318), 253700 ng/mL. For the same compound, the “Concentration … after different incubation time” value is 132500 ng/mL in data set [2] (binary system with 0.5% polymer 101, incubation 0.5 h); 47200 ng/mL in data set [2] (binary system with 0.5% polymer 101, incubation 3 h); 46600 ng/mL in data set [2] (binary system with 0.5% polymer 101, incubation 6 h); 169800 ng/mL in data set [2] (setting [5]); 166000 ng/mL in data set [2] (setting [6]); 161400 ng/mL in data set [2] (setting [7]). Besides, the “Concentration … after different incubation time” value in data set [2] (binary system with 0.5% polymer 103, incubation 0.5 h) stood at 19200 ng/mL; in data set [2] (binary system with 0.5% polymer 103, incubation 3 h) it was 20400 ng/mL; in data set [2] (binary system with 0.5% polymer 103, incubation 6 h), 17500 ng/mL; in data set [2] (binary system with 0.5% polymer 104, incubation 0.5 h), 11900 ng/mL; in data set [2] (binary system with 0.5% polymer 104, incubation 3 h), 9400 ng/mL; in data set [2] (binary system with 0.5% polymer 104, incubation 6 h) it was 9100 ng/mL. In addition, the “Concentration … after different incubation time” value in data set [2] (binary system with 0.5% polymer 106, incubation 0.5 h) stood at 16800 ng/mL; in data set [2] (binary system with 0.5% polymer 106, incubation 3 h) it was 17400 ng/mL; in data set [2] (binary system with 0.5% polymer 106, incubation 6 h) it was 17300 ng/mL; in data set [2] (binary system with 0.5% polymer 107, incubation 0.5 h) it was 48300 ng/mL; in data set [2] (binary system with 0.5% polymer 107, incubation 3 h), 52100 ng/mL; in data set [2] (binary system with 0.5% polymer 107, incubation 6 h), 45500 ng/mL. In addition, the “Concentration … after different incubation time” value in data set [2] (binary system with 0.5% polymer 110, incubation 0.5 h) was 17000 ng/mL; in data set [2] (binary system with 0.5% polymer 110, incubation 3 h), 19200 ng/mL; in data set [2] (binary system with 0.5% polymer 110, incubation 6 h), 19100 ng/mL. The “Times that of the initial medium” value is recorded as “approximately 14 times” in data set [2] (binary: 0.25% 102H); “about 6 times” in data set [2] (binary: 0.25% 102M); 26 times in data set [4] (setting [8]); 9.7 times in data set [4] (setting [9]); 35 times in data set [4] (ternary: 0.25% 102M + 0.5% 301); 29 times in data set [4] (ternary: 102M + 310, 312 or 313).
